Laboratory results from patent publication US20240024273A1, “TOPICAL ADMINISTRATION OF 2-(DIETHYLAMINO)ETHYL 2-(4-ISOBUTYLPHENYL)PROPRIONATE FOR TREATMENT OF DISEASES” (TECHFIELDS PHARMA CO., LTD., priority 2020, published 2024).
Values joined by “and” are separate entries in the source; they are usually repeats but may differ in a detail not shown here. Equal entries are not always repeated.

Columns and labels:
[1] = tested on: osteoarthritis of the knee; experiment: Second Phase 2 study: WOMAC stiffness subscale score; type: in vivo, human
From the text: For subjects with bilateral knee pain, both knees will be treated, but the most symptomatic knee (ie, the most painful knee as measured by the Western Ontario and McMaster University Osteoarthritis Index [WOMAC® 3.1] pain subscale score at Screening) will be designated as the target knee for efficacy analyses. For subjects with unilateral knee pain, only the symptomatic (target) knee will be treated.
(§1) The VAS version of the WOMAC will be used for the Primary and Secondary Efficacy Endpoints. Efficacy endpoints will be assessed at Screening and Baseline (Day 1) and at the Week 2, Week 4, Week 8, and Week 12/EOS visits.
(§2) 4.9.2. Secondary Efficacy Endpoints: • 1. Change from Baseline in the WOMAC (VAS) pain subscale score for the target knee at 2, 8, and 12 weeks of treatment; • 2. Change from Baseline in the WOMAC (VAS) stiffness subscale scores for the target knee and WOMAC (VAS) functional ability subscale scores at 2, 4, 8, and 12 weeks of treatment; • 3. Change from Baseline in the overall WOMAC (VAS) score at 2, 4, 8, and 12 weeks of treatment; • 4. Subject's global assessment of disease status of the target knee at 2, 4, 8, and 12 weeks of treatment; • 5. Subject's global assessment of response to therapy of the target knee at 2, 4, 8, and 12 weeks of treatment; • 6. Amount of rescue medication (acetaminophen) consumed per day for target knee pain.
(§3) The Secondary Efficacy Endpoints, change from Baseline in the WOMAC subscale scores for pain, stiffness, and functional ability, and overall WOMAC score at 2, 4, 8, and 12 weeks of treatment, will be analyzed using the same methods as for the Primary Efficacy Endpoint.

[2] = tested on: osteoarthritis of the knee; experiment: Second Phase 2 study: WOMAC difficulty performing daily activities (functional ability) subscale score; type: in vivo, human
From the text: This is a Phase 2, multicenter, randomized, double blind (within dose), Ibuprofen-placebo controlled, parallel group, dose range finding study to evaluate the efficacy, safety, and PK of 2-(diethylamino)ethyl 2-(4-isobutylphenyl)propionate spray in adult subjects with clinically symptomatic OA of the knee. For subjects with bilateral knee pain, both knees will be treated, but the most symptomatic knee (ie, the most painful knee as measured by the Western Ontario and McMaster University Osteoarthritis Index [WOMAC® 3.1] pain subscale score at Screening) will be designated as the target knee for efficacy analyses. For subjects with unilateral knee pain, only the symptomatic (target) knee will be treated.
as §1, §2, §3

[3] = 17.5 mg/knee BID, Week 12, first 130 subjects
[4] = Avg. of all patients (blinded), Low Dose (2 spray/knee, 8.75 mg/knee) Cohort, Day 1
[5] = Avg. of all patients (blinded), Low Dose (2 spray/knee, 8.75 mg/knee) Cohort, Week 2
[6] = Avg. of all patients (blinded), Low Dose (2 spray/knee, 8.75 mg/knee) Cohort, Week 4
[7] = Avg. of all patients (blinded), Low Dose (2 spray/knee, 8.75 mg/knee) Cohort, Week 8
[8] = Avg. of all patients (blinded), Low Dose (2 spray/knee, 8.75 mg/knee) Cohort, Week 12
[9] = 4.375 mg/knee BID (n = 23), first 130 subjects
[10] = 8.75 mg/knee BID (n = 24), first 130 subjects
[11] = 17.5 mg/knee BID (n = 19), first 130 subjects
[12] = Week 12, 4.375 mg/knee BID (n = 23), first 130 subjects
[13] = Week 12, 8.75 mg/knee BID (n = 24), first 130 subjects
[14] = Week 12, 17.5 mg/knee BID (n = 19), first 130 subjects
[15] = all subjects, 4.375 mg/knee BID, n = 49, Week 12
[16] = all subjects, 8.75 mg/knee BID, n = 54, Week 12
[17] = all subjects, 17.5 mg/knee BID, n = 52, Week 12

In the case of `CCN(CC)CCOC(=O)C(C)c1ccc(CC(C)C)cc1` (centres unmarked) [2-(diethylamino)ethyl 2-(4-isobutylphenyl)propionate], the “WOMAC stiffness, difference from oral ibuprofen” value [1, 3] is reported as −12.4 mm, the “WOMAC stiffness, difference from placebo” value [1, 3] is reported as −19.1 mm and the “WOMAC Joint Stiffness Subscale Score, Day 1, Avg.” value [1, 4] is reported as 64.2. The “WOMAC Joint Stiffness Subscale Score, Week 2, Avg.” value [1, 5] was 52.5, the “WOMAC Joint Stiffness Subscale Score, Week 4, Avg.” value [1, 6] was 45.7 and the “WOMAC Joint Stiffness Subscale Score, Week 8, Avg.” value [1, 7] was 42.3. For the same molecule, the “WOMAC Joint Stiffness Subscale Score, Week 12, Avg.” value [1, 8] was 41.8, the “WOMAC Stiffness Subscale Scores, Baseline (LS Mean)” value [1, 9] was 50.2 mm and the “WOMAC Stiffness Subscale Scores, Baseline (LS Mean)” value [1, 10] was 52.4 mm. The “WOMAC Stiffness Subscale Scores, Baseline (LS Mean)” value [1, 11] was 57.6 mm, the “WOMAC Stiffness Subscale Scores, % of improvement from Oral Ibuprofen” value [1, 12] was 0.6% and the “WOMAC Stiffness Subscale Scores, % of improvement from Placebo” value [1, 12] was −9.7%. The “WOMAC Stiffness Subscale Scores, % of improvement from baseline” value [1, 12] was −35.9%, the “WOMAC Stiffness Subscale Scores, Changes from Baseline (LS Mean)” value (“WOMAC Stiffness Subscale Scores, Changes” below) [1, 12] was −18.0 mm and the “WOMAC Stiffness Subscale Scores, Different from placebo (LS Mean)” value [1, 12] was −4.0 mm. For the same molecule, the “WOMAC Stiffness Subscale Scores, Week 12 (LS Mean)” value [1, 12] was 32.2 mm, the “WOMAC Stiffness Subscale Scores, % of improvement from Oral Ibuprofen” value [1, 13] was −2.4% and the “WOMAC Stiffness Subscale Scores, % of improvement from Placebo” value [1, 13] was −12.7%. For the same molecule, the “WOMAC Stiffness Subscale Scores, % of improvement from baseline” value [1, 13] was −38.9%, the “WOMAC Stiffness Subscale Scores, Changes” value [1, 13] was −20.4 mm and the “WOMAC Stiffness Subscale Scores, Different from oral ibuprofen (LS Mean)” value [1, 13] was 0.2 mm. The “WOMAC Stiffness Subscale Scores, Different from placebo (LS Mean)” value [1, 13] was −6.4 mm, the “WOMAC Stiffness Subscale Scores, Week 12 (LS Mean)” value [1, 13] was 32.0 mm and the “WOMAC Stiffness Subscale Scores, % of improvement from Oral Ibuprofen” value [1, 14] was −21.0%. For the same molecule, the “WOMAC Stiffness Subscale Scores, % of improvement from Placebo” value [1, 14] was −31.3%, the “WOMAC Stiffness Subscale Scores, % of improvement from baseline” value [1, 14] was −57.5% and the “WOMAC Stiffness Subscale Scores, Changes” value [1, 14] was −33.1 mm. For the same molecule, the “WOMAC Stiffness Subscale Scores, Different from oral ibuprofen (LS Mean)” value [1, 14] was −12.4 mm, the “WOMAC Stiffness Subscale Scores, Different from placebo (LS Mean)” value [1, 14] was −19.1 mm and the “WOMAC Stiffness Subscale Scores, Week 12 (LS Mean)” value [1, 14] was 24.6 mm. For the same molecule, the “WOMAC Stiffness Subscale Scores, % of improvement from Oral Ibuprofen” value [1, 15] was 4.7%, the “WOMAC Stiffness Subscale Scores, % of improvement from Placebo” value [1, 15] was −2.2% and the “WOMAC Stiffness Subscale Scores, % of improvement from baseline” value [1, 15] was −34.6%. The “WOMAC Stiffness Subscale Scores, Changes” value [1, 15] was −16.9 mm, the “WOMAC Stiffness Subscale Scores, Week 12 (LS Mean)” value [1, 15] was 31.9 mm and the “WOMAC Stiffness Subscale Scores, % of improvement from Oral Ibuprofen” value [1, 16] was −2.8%. For the same molecule, the “WOMAC Stiffness Subscale Scores, % of improvement from Placebo” value [1, 16] was −9.7%, the “WOMAC Stiffness Subscale Scores, % of improvement from baseline” value [1, 16] was −42.1% and the “WOMAC Stiffness Subscale Scores, Changes” value [1, 16] was −23.3 mm. The “WOMAC Stiffness Subscale Scores, Different from oral ibuprofen (LS Mean)” value [1, 16] was −3.0 mm, the “WOMAC Stiffness Subscale Scores, Different from placebo (LS Mean)” value [1, 16] was −6.7 mm and the “WOMAC Stiffness Subscale Scores, Week 12 (LS Mean)” value [1, 16] was 32.0 mm. The “WOMAC Stiffness Subscale Scores, % of improvement from Oral Ibuprofen” value [1, 17] was −8.0%, the “WOMAC Stiffness Subscale Scores, % of improvement from Placebo” value [1, 17] was −14.9% and the “WOMAC Stiffness Subscale Scores, % of improvement from baseline” value [1, 17] was −47.3%. The “WOMAC Stiffness Subscale Scores, Changes” value [1, 17] was −25.2 mm, the “WOMAC Stiffness Subscale Scores, Different from oral ibuprofen (LS Mean)” value [1, 17] was −4.9 mm and the “WOMAC Stiffness Subscale Scores, Different from placebo (LS Mean)” value [1, 17] was −8.6 mm. For the same molecule, the “WOMAC Stiffness Subscale Scores, Week 12 (LS Mean)” value [1, 17] was 28.1 mm, the “WOMAC Joint Stiffness Subscale Score, Week 4” value ([1]; individual patient (blinded), Low Dose (2 spray/knee, 8.75 mg/knee) Cohort, Week 4) was 59.5 and 62 and the “WOMAC functional ability, difference from oral ibuprofen” value [2, 3] was −15.6. The “WOMAC functional ability, difference from placebo” value [2, 3] was −19.1, the “WOMAC Difficulty Performing Daily Activities Subscale Score, Day 1, Avg.” value [2, 4] was 60.4 and the “WOMAC Difficulty Performing Daily Activities Subscale Score, Follow-up, Avg.” value ([2]; Avg. of all patients (blinded), Low Dose (2 spray/knee, 8.75 mg/knee) Cohort, Follow-up) was 40.1. For the same molecule, the “WOMAC Difficulty Performing Daily Activities Subscale Score, Week 2, Avg.” value [2, 5] was 49.8, the “WOMAC Difficulty Performing Daily Activities Subscale Score, Week 4, Avg.” value [2, 6] was 44.0 and the “WOMAC Difficulty Performing Daily Activities Subscale Score, Week 8, Avg.” value [2, 7] was 41.1. For the same molecule, the “WOMAC Difficulty Performing Daily Activities Subscale Score, Week 12, Avg.” value [2, 8] was 39.8, the “WOMAC Difficulty Performing Daily Activities Subscale Scores, Baseline (LS Mean)” value [2, 9] was 60.2 mm and the “WOMAC Difficulty Performing Daily Activities Subscale Scores, Baseline (LS Mean)” value [2, 10] was 61.6 mm. For the same molecule, the “WOMAC Difficulty Performing Daily Activities Subscale Scores, Baseline (LS Mean)” value [2, 11] was 63.9 mm, the “WOMAC Difficulty Performing Daily Activities Subscale Scores, % of improvement from Oral Ibuprofen” value [2, 12] was −10.9% and the “WOMAC Difficulty Performing Daily Activities Subscale Scores, % of improvement from Placebo” value [2, 12] was −14.2%. The “WOMAC Difficulty Performing Daily Activities Subscale Scores, % of improvement from baseline” value [2, 12] was −43.9%, the “WOMAC Difficulty Performing Daily Activities Subscale Scores, Changes from Baseline (LS Mean)” value [2, 12] was −26.4 mm and the “WOMAC Difficulty Performing Daily Activities Subscale Scores, Different from oral ibuprofen (LS Mean)” value [2, 12] was −4.8 mm. For the same molecule, the “WOMAC Difficulty Performing Daily Activities Subscale Scores, Different from placebo (LS Mean)” value [2, 12] was −8.3 mm, the “WOMAC Difficulty Performing Daily Activities Subscale Scores, Week 12 (LS Mean)” value [2, 12] was 33.8 mm and the “WOMAC Difficulty Performing Daily Activities Subscale Scores, % of improvement from Oral Ibuprofen” value [2, 13] was −12.5%. For the same molecule, the “WOMAC Difficulty Performing Daily Activities Subscale Scores, % of improvement from Placebo” value [2, 13] was −15.9%, the “WOMAC Difficulty Performing Daily Activities Subscale Scores, % of improvement from baseline” value [2, 13] was −45.6% and the “WOMAC Difficulty Performing Daily Activities Subscale Scores, Changes from Baseline (LS Mean)” value [2, 13] was −28.1 mm. The “WOMAC Difficulty Performing Daily Activities Subscale Scores, Different from oral ibuprofen (LS Mean)” value [2, 13] was −6.6 mm, the “WOMAC Difficulty Performing Daily Activities Subscale Scores, Different from placebo (LS Mean)” value [2, 13] was −10.0 mm and the “WOMAC Difficulty Performing Daily Activities Subscale Scores, Week 12 (LS Mean)” value [2, 13] was 33.4 mm. The “WOMAC Difficulty Performing Daily Activities Subscale Scores, % of improvement from Oral Ibuprofen” value [2, 14] was −25.2% and the “WOMAC Difficulty Performing Daily Activities Subscale Scores, % of improvement from Placebo” value [2, 14] was −28.5%.
